Where only a bound is given, the exact number is not on record here.

This is an account of results in patent publication US4160845A, “Fungicidal N-(haloaliphaticthio)halovinylsulfonamides” (Chevron Research Company, priority 1976, dated 1979).

Format in all cases: cell-based
Common to all, as to settings: paper strips on potato dextrose agar, 25° C., 24 hours

Assay [1] deals with Fusarium moniloforma. Description: Mycelial inhibition test, Fusarium moniloforma.
The test system of assay [2] is Aspergillus niger. Description: Mycelial inhibition test, Aspergillus niger.
Assay [3] has as its system Rhizoctonia solani. Description: Mycelial inhibition test, Rhizoctonia solani.

Turning to `Cc1ccc(NS(=O)(=O)C(Cl)=C(Cl)Cl)cc1` [Compound 18], in assay [1], the “Mycelia Inhibition, micrograms/cm for 99% control, F” value is above 1.7 micrograms/cm. Also, in assay [2], the “Mycelia Inhibition, micrograms/cm for 99% control, A” value was above 1.7 micrograms/cm. Besides, the “Mycelia Inhibition, micrograms/cm for 99% control, R” value in assay [3] was above 1.7 micrograms/cm.

For the compound `O=S(=O)(Nc1ccc(Cl)cc1)C(Cl)=C(Cl)Cl` [Compound 19, N-(p-chlorophenyl)trichlorovinylsulfonamide], the “Mycelia Inhibition, micrograms/cm for 99% control, F” value in assay [1] is above 1.7 micrograms/cm. In addition, the “Mycelia Inhibition, micrograms/cm for 99% control, A” value in assay [2] is given as above 1.7 micrograms/cm. Moreover, the “Mycelia Inhibition, micrograms/cm for 99% control, R” value in assay [3] was above 1.7 micrograms/cm.

With `Cc1cccc(C)c1N(SC(Cl)(Cl)Cl)S(=O)(=O)C(Cl)=C(Cl)Cl` [Compound 9], the “Mycelia Inhibition, micrograms/cm for 99% control, F” value in assay [1] is above 1.7 micrograms/cm. Besides, the “Mycelia Inhibition, micrograms/cm for 99% control, A” value in assay [2] is listed as above 1.7 micrograms/cm. The “Mycelia Inhibition, micrograms/cm for 99% control, R” value in assay [3] came out at 0.33 micrograms/cm.

Turning to `O=S(=O)(Nc1ccccc1)C(Cl)=C(Cl)Cl` [Compound 16], in assay [1], the “Mycelia Inhibition, micrograms/cm for 99% control, F” value is listed as above 1.7 micrograms/cm. In addition, the “Mycelia Inhibition, micrograms/cm for 99% control, A” value in assay [2] is given as above 1.7 micrograms/cm. Moreover, the “Mycelia Inhibition, micrograms/cm for 99% control, R” value in assay [3] was above 1.7 micrograms/cm.

As for `CNS(=O)(=O)C(Cl)=C(Cl)Cl` [Compound 13], the “Mycelia Inhibition, micrograms/cm for 99% control, F” value in assay [1] was above 1.7 micrograms/cm. Also, in assay [2], the “Mycelia Inhibition, micrograms/cm for 99% control, A” value is recorded as above 1.7 micrograms/cm. Moreover, the “Mycelia Inhibition, micrograms/cm for 99% control, R” value in assay [3] is recorded as above 1.7 micrograms/cm.

`Cc1cccc(C)c1NS(=O)(=O)C(Cl)=C(Cl)Cl` [Compound 17]: the “Mycelia Inhibition, micrograms/cm for 99% control, F” value in assay [1] is given as above 1.7 micrograms/cm. Besides, the “Mycelia Inhibition, micrograms/cm for 99% control, A” value in assay [2] is on record as above 1.7 micrograms/cm. The “Mycelia Inhibition, micrograms/cm for 99% control, R” value in assay [3] is given as above 1.7 micrograms/cm.

For `Cc1cc(Sc2ccccc2)ccc1NS(=O)(=O)C(Cl)=C(Cl)Cl` [Compound 20], in assay [1], the “Mycelia Inhibition, micrograms/cm for 99% control, F” value is on record as above 1.7 micrograms/cm. Besides, the “Mycelia Inhibition, micrograms/cm for 99% control, A” value in assay [2] is listed as above 1.7 micrograms/cm. Also, in assay [3], the “Mycelia Inhibition, micrograms/cm for 99% control, R” value was above 1.7 micrograms/cm.

On to `O=S(=O)(NC1CCCCC1)C(Cl)=C(Cl)Cl` [Compound 15], for which the “Mycelia Inhibition, micrograms/cm for 99% control, F” value in assay [1] was above 1.7 micrograms/cm. In assay [2], the “Mycelia Inhibition, micrograms/cm for 99% control, A” value is listed as above 1.7 micrograms/cm. Moreover, the “Mycelia Inhibition, micrograms/cm for 99% control, R” value in assay [3] is on record as above 1.7 micrograms/cm.

Take `CC(C)N(SC(Cl)(Cl)Cl)S(=O)(=O)C(Cl)=C(Cl)Cl` [Compound 4]: in assay [1], the “Mycelia Inhibition, micrograms/cm for 99% control, F” value was above 1.7 micrograms/cm. The “Mycelia Inhibition, micrograms/cm for 99% control, A” value in assay [2] turned out to be 0.68 micrograms/cm. Moreover, the “Mycelia Inhibition, micrograms/cm for 99% control, R” value in assay [3] is 0.19 micrograms/cm.

Take `O=S(=O)(C(Cl)=C(Cl)Cl)N(SC(Cl)(Cl)Cl)c1ccccc1` [Compound 7, N-phenyl-N-(trichloromethylthio)trichlorovinylsulfonamide]: the “Mycelia Inhibition, micrograms/cm for 99% control, F” value in assay [1] was above 1.7 micrograms/cm. Besides, the “Mycelia Inhibition, micrograms/cm for 99% control, A” value in assay [2] was above 1.5 micrograms/cm. The “Mycelia Inhibition, micrograms/cm for 99% control, R” value in assay [3] was above 1.7 micrograms/cm.

Consider `O=S(=O)(C(Cl)=C(Cl)Cl)N(SC(Cl)(Cl)Cl)C1CCCCC1` [Compound 5], for which the “Mycelia Inhibition, micrograms/cm for 99% control, F” value in assay [1] is reported as above 1.7 micrograms/cm. Besides, the “Mycelia Inhibition, micrograms/cm for 99% control, A” value in assay [2] is on record as above 1.7 micrograms/cm. For the same compound, in assay [3], the “Mycelia Inhibition, micrograms/cm for 99% control, R” value worked out at 1.1 micrograms/cm.

Turning to `CC(C)NS(=O)(=O)C(Cl)=C(Cl)Cl` [Compound 14], the “Mycelia Inhibition, micrograms/cm for 99% control, F” value in assay [1] is above 1.7 micrograms/cm. In addition, the “Mycelia Inhibition, micrograms/cm for 99% control, A” value in assay [2] is above 1.7 micrograms/cm. Also, in assay [3], the “Mycelia Inhibition, micrograms/cm for 99% control, R” value is above 1.7 micrograms/cm.

For `CN(SC(Cl)(Cl)Cl)S(=O)(=O)C(Cl)=C(Cl)Cl` [Compound 1, N-methyl-N-(trichloromethylthio)trichlorovinylsulfonamide], the “Mycelia Inhibition, micrograms/cm for 99% control, F” value in assay [1] worked out at 1.7 micrograms/cm. Moreover, the “Mycelia Inhibition, micrograms/cm for 99% control, A” value in assay [2] is reported as 0.42 micrograms/cm. Further, in assay [3], the “Mycelia Inhibition, micrograms/cm for 99% control, R” value was 0.18 micrograms/cm.

Take `Cc1ccc(N(SC(Cl)(Cl)Cl)S(=O)(=O)C(Cl)=C(Cl)Cl)cc1` [Compound 11]: in assay [1], the “Mycelia Inhibition, micrograms/cm for 99% control, F” value is given as above 1.7 micrograms/cm. In assay [2], the “Mycelia Inhibition, micrograms/cm for 99% control, A” value was above 1.7 micrograms/cm. The “Mycelia Inhibition, micrograms/cm for 99% control, R” value in assay [3] is reported as above 1.7 micrograms/cm.

Regarding `O=S(=O)(Nc1ccc(Cl)c(Cl)c1)C(Cl)=C(Cl)Cl` [Compound 21], the “Mycelia Inhibition, micrograms/cm for 99% control, F” value in assay [1] is above 1.7 micrograms/cm. Besides, in assay [2], the “Mycelia Inhibition, micrograms/cm for 99% control, A” value was above 1.7 micrograms/cm. In addition, in assay [3], the “Mycelia Inhibition, micrograms/cm for 99% control, R” value is given as above 1.7 micrograms/cm.
